# Patent publication US20210023113A1, “CONJUGATE OF CYTOTOXIC DRUG AND PRODRUG FORM OF SAID CONJUGATE” (priority 2018, published 2021)
# What was measured:
# [1] = Stability of R5 and S5 in aqueous buffer (PBS); assay type: physicochemical; settings: phosphate buffered saline pH 6.0, any time point
# Description: Measurement of the Stability of R5 and S5 in Aqueous Buffer at pH 7.4 • Sample solution R5-PBS was prepared by adding 20 μL of R5 (10 mM in DMSO) to 180 μL of phosphate buffered saline (pH 7.4). • Sample solution S5-PBS was prepared by adding 20 μL of S5 (10 mM in DMSO) to 180 μL of phosphate buffered saline (pH 7.4). • Samples were incubated at 25° C. and analyzed by LCMS (Method 3) with Selected ion recording set to 924 Da (corresponding to [R5+2H]^2+/2 and [S5+2H]^2+/2) and to 933 Da (the main impurity being formed corresponding to hydrolyzed products [R5+H2O+2H]^2+/2 and [S5+H2O+2H]^2+/2). Samples were injected at the following time points: 0 min, 99 min, 195 min, 291 min, 387 min, 543 min, 699 min, 855 min, 980 min. Peak areas of the samples injected at 0 min were considered as reference peak areas. • % Peak Area was calculated as (924 Da peak area)/((924 Da peak area)+(933 Da peak area))×100%.
# The same experiment was carried out in phosphate buffered saline at pH 6.0.
# serum albumin = target: T1, serum albumin (Homo sapiens, UniProt P02768); assay: Plasma-binding kinetics of R5 and S5; assay type: in vitro ADME; settings: 37° C.
# T1 construct: adding 10 μL of R5 (10 mM in DMSO) to 990 μL of human plasma and incubating at 37° C; from tissue; host or cells: human plasma
# Description: Plasma-Binding Kinetics of R5 and S5 • Quenching solution (Q) was prepared by adding 50 μL of 1 M aqueous HCl to 1.5 mL of acetonitrile. • Sample solution R-Alb was prepared by adding 10 μL of R5 (10 mM in DMSO) to 990 μL of human plasma and incubating at 37° C. • Sample solution S-Alb was prepared by adding 10 μL of S5 (10 mM in DMSO) to 990 μL of human plasma and incubating at 37° C. • 45 μL aliquots of each sample solution were added to 155 μL of the quenching solution at the following time-points: 0 min, 1 min, 2 min, 3 min, 4 min, 5 min, 6 min, 7 min. • Quenched aliquots were centrifuged at 15000 g for 5 min and the supernatant was analyzed by LCMS (Method 3) with Selected ion recording set to 924 Da (corresponding to [R5+2H]^2+/2 and [S5+2H]^2+/2). Peak areas of the aliquots quenched at 0 min were considered as reference peak areas. • The % remaining free drug at each time point was calculated as (sample peak area)/(reference peak area)×100%.
# [2] = target: T2, β-glucuronidase from Escherichia coli (Escherichia coli, UniProt P05804); assay: Kinetics of β-glucuronidase-induced release of MMAE in human plasma; assay type: biochemical; settings: after 7 minutes of incubation with β-glucuronidase, 37° C.
# Description: Measurement of the Kinetics of β-glucuronidase-Induced Release of MMAE • Sample solution of R isomer was prepared by adding 10 μL of R5 (10 mM in DMSO) to 990 μL of human plasma and incubating at 37° C. for 20 min. • Sample solution of S isomer was prepared by adding 10 μL of S5 (10 mM in DMSO) to 990 μL of human plasma and incubating at 37° C. for 20 min. • Quenching solution (Q) was prepared by adding 50 μL of 1 M aqueous HCl to 1.5 mL of acetonitrile. • β-glucuronidase solution (Glu) was prepared by adding 20 μL of aqueous glycerol solution of β-glucuronidase from Escherichia coli (6.5 mg/mL) to 180 μL of H2O. • Reference solution (Ref) was prepared by adding 10 μL of MMAE (10 mM in DMSO) to 990 μL of human plasma and incubating at 37° C. for 20 min.
# To 1 mL of each isomer and reference solution was added 40.9 uL of Glu. The resulting mixtures were incubated at 37° C. 45 μL aliquots of each solution were quenched with 155 μL of Q at the following time points: 1 min, 2 min, 3 min, 4 min, 5 min, 6 min and 7 min. Quenched aliquots were centrifuged at 15000 g for 5 min and the supernatant was analyzed by LCMS (Method 3) with Selected ion recording set to 719 Da (corresponding to [MMAE+H]^+). The amount of released MMAE at each time point was calculated as (sample peak area)/(reference peak area)×100% (FIG. 2).
# [3] = target: T2, β-glucuronidase from Escherichia coli; assay: Kinetics of β-glucuronidase-induced release of a cytotoxic drug (general procedure, plasma/phosphate buffer); assay type: biochemical; settings: after 40 minutes of incubation with β-glucuronidase, 50/50 human plasma and potassium phosphate buffer pH 7.0, 25° C.
# Description: General Procedure for the Measurement of the Kinetics of β-glucuronidase-Induced Release of a Cytotoxic Drug • Sample solution of R isomers was prepared by adding 5 μL of compounds R6, R7 or R8 (10 mM in DMSO) to 500 μL of a 50/50 mixture of human plasma and potassium phosphate buffer (0.1M, pH 7.0) and incubating at 37° C. for 20 min. • Sample solution of S isomers was prepared by adding 5 μL of compounds S6, S7 or S8 (10 mM in DMSO) to 500 μL of a 50/50 mixture of human plasma and potassium phosphate buffer (0.1M, pH 7.0) and incubating at 37° C. for 20 min. • Quenching solution (Q) was prepared by adding 50 μL of 1 M aqueous HCl to 1.5 mL of acetonitrile. • β-glucuronidase solution (Glu) was prepared by adding 20 μL of aqueous glycerol solution of β-glucuronidase from Escherichia coli (6.5 mg/mL) to 180 μL of H2O. • Reference solution (Ref) was prepared by adding 5 μL of a corresponding free cytotoxic drug (10 mM in DMSO) to 500 μL of a 50/50 mixture of human plasma and potassium phosphate buffer (0.1M, pH 7.0) and incubating at 37° C. for 20 min.
# To each sample and reference solution was added 10 uL of Glu. The resulting mixtures were incubated at 25° C. 45 μL aliquots of each solution were quenched with 155 μL of Q at the precise time points indicated on the graphs (FIGS. 3-5). Quenched aliquots were centrifuged at 15000 g for 5 min and the supernatant was analyzed by LCMS (Method 3) with Selected ion recording set to [M+H]^+ where M corresponds to molecular mass of the free cytotoxic agent.
# The amount of released cytotoxic agent at each time point was calculated as (sample peak area)/(reference peak area)×100%.
# T2 sequence (P05804 whole entry): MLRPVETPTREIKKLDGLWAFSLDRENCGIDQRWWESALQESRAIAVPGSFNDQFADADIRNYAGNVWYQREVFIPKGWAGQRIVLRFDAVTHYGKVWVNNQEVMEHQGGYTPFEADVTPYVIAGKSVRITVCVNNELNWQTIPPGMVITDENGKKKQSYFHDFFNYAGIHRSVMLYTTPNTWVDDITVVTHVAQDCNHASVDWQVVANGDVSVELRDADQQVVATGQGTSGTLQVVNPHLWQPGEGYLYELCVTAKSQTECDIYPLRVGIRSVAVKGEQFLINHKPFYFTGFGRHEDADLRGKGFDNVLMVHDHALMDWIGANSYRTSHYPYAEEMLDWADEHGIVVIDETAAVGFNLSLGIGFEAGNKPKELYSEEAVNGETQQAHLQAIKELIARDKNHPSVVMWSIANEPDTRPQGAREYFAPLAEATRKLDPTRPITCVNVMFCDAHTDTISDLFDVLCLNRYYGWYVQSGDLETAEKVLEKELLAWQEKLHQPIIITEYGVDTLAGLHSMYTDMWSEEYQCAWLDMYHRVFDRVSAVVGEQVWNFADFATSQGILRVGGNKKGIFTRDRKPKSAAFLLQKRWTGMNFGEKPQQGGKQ
# T1 sequence (P02768 25-609): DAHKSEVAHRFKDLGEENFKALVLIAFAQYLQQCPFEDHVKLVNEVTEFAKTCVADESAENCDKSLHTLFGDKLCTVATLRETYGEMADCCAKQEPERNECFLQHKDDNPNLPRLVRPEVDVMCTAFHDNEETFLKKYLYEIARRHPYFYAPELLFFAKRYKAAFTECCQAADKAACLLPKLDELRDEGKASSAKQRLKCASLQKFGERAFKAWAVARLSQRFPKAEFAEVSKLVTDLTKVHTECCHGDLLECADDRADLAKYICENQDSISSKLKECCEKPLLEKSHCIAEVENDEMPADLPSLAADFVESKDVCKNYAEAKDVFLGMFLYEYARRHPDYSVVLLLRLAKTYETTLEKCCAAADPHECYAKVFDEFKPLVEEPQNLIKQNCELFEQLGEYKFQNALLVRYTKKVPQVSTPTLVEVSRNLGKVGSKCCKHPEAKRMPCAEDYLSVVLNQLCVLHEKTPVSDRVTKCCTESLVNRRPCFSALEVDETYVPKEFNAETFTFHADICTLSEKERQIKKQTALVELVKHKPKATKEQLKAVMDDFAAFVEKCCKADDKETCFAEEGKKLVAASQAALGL
compound,measurement,setting,value
CC[C@H](C)[C@@H]([C@@H](CC(=O)N1CCC[C@H]1[C@H](OC)[C@@H](C)C(=O)N[C@H](C)[C@@H](O)c1ccccc1)OC)N(C)C(=O)[C@@H](NC(=O)[C@H](C(C)C)N(C)C(=O)O[C@@H](Cc1cn(CCOCCOCCOCCOCCOCCOCCOCCOCCOCCOCCNC(=O)CCCCCN2C(=O)C=CC2=O)nn1)c1ccc(O[C@@H]2O[C@H](C(=O)O)[C@@H](O)[C@H](O)[C@H]2O)c([N+](=O)[O-])c1)C(C)C [S5],degradation of compound,[1],No degradation
same,compound bound to serum albumin,serum albumin; after 2 minutes of incubation,about 90%
same,conversion (binding to serum albumin),serum albumin; after 4 minutes,total conversion
same,MMAE released from plasma-bound compound,[2],12%
CC[C@H](C)[C@@H]([C@@H](CC(=O)N1CCC[C@H]1[C@H](OC)[C@@H](C)C(=O)N[C@@H](Cc1ccccc1)C(=O)O)OC)N(C)C(=O)[C@@H](NC(=O)[C@H](C(C)C)N(C)C(=O)O[C@@H](Cc1cn(CCOCCOCCOCCOCCOCCOCCOCCOCCOCCOCCNC(=O)CCCCCN2C(=O)C=CC2=O)nn1)c1ccc(O[C@@H]2O[C@H](C(=O)O)[C@@H](O)[C@H](O)[C@H]2O)c([N+](=O)[O-])c1)C(C)C [S6],MMAF released from plasma-bound compound,[3],57%
CCc1c2c(nc3ccc(OCc4ccc(NC(=O)O[C@@H](Cc5cn(CCOCCOCCOCCOCCOCCOCCOCCOCCOCCOCCNC(=O)CCCCCN6C(=O)C=CC6=O)nn5)c5ccc(O[C@H]6O[C@@H](C(=O)O)[C@H](O)[C@@H](O)[C@@H]6O)c([N+](=O)[O-])c5)cc4)cc13)-c1cc3c(c(=O)n1C2)COC(=O)[C@]3(O)CC [S7],SN-38 released from plasma-bound compound,[3],18%
COc1cccc2c1C(=O)c1c(O)c3c(c(O)c1C2=O)C[C@@](O)(C(=O)CO)C[C@@H]3O[C@H]1C[C@H](NC(=O)O[C@@H](Cc2cn(CCOCCOCCOCCOCCOCCOCCOCCOCCOCCOCCNC(=O)CCCCCN3C(=O)C=CC3=O)nn2)c2ccc(O[C@H]3O[C@@H](C(=O)O)[C@H](O)[C@@H](O)[C@@H]3O)c([N+](=O)[O-])c2)[C@H](O)[C@H](C)O1 [S8],Doxorubicin released from plasma-bound compound,[3],80%
